The values that follow come from ChEMBL document CHEMBL5608255, “Inhibitors of the Cyclic GMP-AMP Synthase (cGAS) as Potential Treatment for Autoimmune and Inflammatory Diseases” (ACS Med Chem Lett, 2024).

One test deals with T1, Cyclic GMP-AMP synthase (Homo sapiens, UniProt Q8N884). The test is described as follows: Inhibition of cGAS in dsDNA stimulated human Whole blood cell by measuring IFNalpha-2a production incubated for 60 mins followed by addition of double stranded DNA measured after 1350 mins by microplate reader assay. The format is tissue-based.
T1 sequence (Q8N884 whole entry): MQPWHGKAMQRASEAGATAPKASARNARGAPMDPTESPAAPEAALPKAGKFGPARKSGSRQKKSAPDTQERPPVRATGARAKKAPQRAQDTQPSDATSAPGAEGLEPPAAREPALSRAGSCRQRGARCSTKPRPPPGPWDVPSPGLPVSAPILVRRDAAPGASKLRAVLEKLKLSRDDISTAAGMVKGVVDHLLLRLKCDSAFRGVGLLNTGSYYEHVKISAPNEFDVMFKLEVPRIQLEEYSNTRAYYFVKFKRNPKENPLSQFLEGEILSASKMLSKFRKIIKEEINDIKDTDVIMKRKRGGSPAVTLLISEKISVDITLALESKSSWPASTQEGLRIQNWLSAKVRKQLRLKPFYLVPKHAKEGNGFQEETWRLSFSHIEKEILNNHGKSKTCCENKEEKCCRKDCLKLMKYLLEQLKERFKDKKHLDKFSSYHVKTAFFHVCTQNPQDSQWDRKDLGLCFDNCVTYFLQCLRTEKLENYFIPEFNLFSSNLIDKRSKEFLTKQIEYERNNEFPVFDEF
What is called IC50 is the point on the concentration scale where inhibition reaches its midpoint. Consider `CC(=O)[C@@H]1C[C@H]2CN1c1nc(nc3c1oc1ccccc13)CCOCCCC(=O)N1CC[C@@H]([C@@H](C)C1)n1c(nc3cc(Cl)ccc31)O2`, for which the midpoint of inhibition, the IC50, lay at 5 nM.

`C[C@H]1CN2CC[C@@H]1n1c(nc3ccccc31)O[C@H]1C[C@@H](C(=O)O)N(C1)c1nc(nc3c1oc1cc(Cl)ccc13)C(F)(F)CCCOCC2=O` gave a half-maximal inhibitory concentration (IC50) of 4 nM.

As for `Cc1cccc2c1nc1n2[C@@H]2CCN(C[C@H]2C)C(=O)CCCCCC(F)(F)c2nc(c3oc4ccccc4c3n2)N2C[C@H](C[C@H]2C(=O)O)O1`, the IC50 was 1580 nM.

For `C[C@H]1CN2CC[C@@H]1n1c(nc3ccccc31)O[C@H]1C[C@@H](C(=O)O)N(C1)c1nc(nc3c1oc1ccccc13)CCCCCN(C)C2=O`, the half-inhibitory concentration (IC50) was determined as 186 nM.

Turning to `C[C@H]1CN2CC[C@@H]1n1c(nc3ccccc31)O[C@H]1C[C@@H](C(=O)O)N(C1)c1nc(nc3c1oc1ccccc13)C(F)(F)CCCCC(F)(F)C2=O`, the 50% inhibitory concentration (IC50) is 8 nM.

On to `C[C@H]1CN2CC[C@H]1n1c(nc3ccccc31)O[C@H]1C[C@@H](C(=O)O)N(C1)c1nc(nc3c1oc1ccccc13)C(F)(F)COCCCCC2=O`, for which the 50% inhibitory concentration (IC50) was found to be 1 nM.

`C[C@H]1CN2CC[C@@H]1n1c(nc3cc(Cl)ccc31)O[C@H]1C[C@@H](C(=O)O)N(C1)c1nc(nc3c1oc1cc(Cl)ccc13)CCOCCCC2=O`: it took 17 nM to reach half-maximal inhibition (IC50).

The compound `C[C@@H]1CN2CC[C@H]1n1c(nc3ccccc31)O[C@H]1C[C@@H](C(=O)O)N(C1)c1nc(nc3c1oc1ccccc13)CCCCCOC2=O` gave an IC50 of 439 nM.

Regarding `C[C@@H]1CN2CC[C@H]1n1c(nc3cc(Cl)ccc31)O[C@H]1C[C@@H](C(=O)O)N(C1)c1nc(nc3c1oc1ccccc13)CCOCCCC2=O`, half-maximal inhibition (IC50) was put at 87 nM.

Turning to `C[C@H]1CN2CC[C@@H]1n1c(nc3cc(Cl)ccc31)O[C@H]1C[C@@H](C(=O)O)N(C1)c1nc(nc3c1oc1ccccc13)C(F)(F)OCCCCC2=O`, the IC50 was found to be 3 nM.

The next test deals with T1, Cyclic GMP-AMP synthase. Briefly: Ratio of IC50 for inhibition of cGAS in human THP-1 cells using cGAMP as substrate to IC50 for inhibition of cGAS in human THP-1 cells expressed in baculovirus infected insect cells.
For the compound `CC(=O)[C@@H]1C[C@H]2CN1c1nc(nc3c1oc1ccccc13)CCOCCCC(=O)N1CC[C@@H]([C@@H](C)C1)n1c(nc3cc(Cl)ccc31)O2`, the Ratio IC50 was over 3560.

On to `C[C@H]1CN2CC[C@@H]1n1c(nc3ccccc31)O[C@H]1C[C@@H](C(=O)O)N(C1)c1nc(nc3c1oc1cc(Cl)ccc13)C(F)(F)CCCOCC2=O`, for which the Ratio IC50 was over 6580.

As for `Cc1cccc2c1nc1n2[C@@H]2CCN(C[C@H]2C)C(=O)CCCCCC(F)(F)c2nc(c3oc4ccccc4c3n2)N2C[C@H](C[C@H]2C(=O)O)O1`, the Ratio IC50 was found to be 33.

For the compound `C[C@H]1CN2CC[C@@H]1n1c(nc3ccccc31)O[C@H]1C[C@@H](C(=O)O)N(C1)c1nc(nc3c1oc1ccccc13)CCCCCN(C)C2=O`, the Ratio IC50 came to 15.

On to `C[C@H]1CN2CC[C@@H]1n1c(nc3ccccc31)O[C@H]1C[C@@H](C(=O)O)N(C1)c1nc(nc3c1oc1ccccc13)C(F)(F)CCCCC(F)(F)C2=O`, for which the Ratio IC50 worked out at 519.

`C[C@H]1CN2CC[C@H]1n1c(nc3ccccc31)O[C@H]1C[C@@H](C(=O)O)N(C1)c1nc(nc3c1oc1ccccc13)C(F)(F)COCCCCC2=O`: the Ratio IC50 was 32100.

As for `C[C@H]1CN2CC[C@@H]1n1c(nc3cc(Cl)ccc31)O[C@H]1C[C@@H](C(=O)O)N(C1)c1nc(nc3c1oc1cc(Cl)ccc13)CCOCCCC2=O`, the Ratio IC50 turned out to be 3930.

Regarding `C[C@@H]1CN2CC[C@H]1n1c(nc3ccccc31)O[C@H]1C[C@@H](C(=O)O)N(C1)c1nc(nc3c1oc1ccccc13)CCCCCOC2=O`, the Ratio IC50 was 45.

For the compound `C[C@@H]1CN2CC[C@H]1n1c(nc3cc(Cl)ccc31)O[C@H]1C[C@@H](C(=O)O)N(C1)c1nc(nc3c1oc1ccccc13)CCOCCCC2=O`, the Ratio IC50 is over 253.

For the compound `C[C@H]1CN2CC[C@@H]1n1c(nc3cc(Cl)ccc31)O[C@H]1C[C@@H](C(=O)O)N(C1)c1nc(nc3c1oc1ccccc13)C(F)(F)OCCCCC2=O`, the Ratio IC50 is over 2220.

In a further test the target is T1, Cyclic GMP-AMP synthase. Briefly: Inhibition of N-terminal 6His-SUMO tagged human cGAS (1 to 522 residues) extracted from Escherichia coli BL21(DE3)pLysS cells using GTP/ATP as substrate by measuring cGAMP production incubated for 90 mins in presence of 45 base pair DNA by mass spectrometric analysis.
Take `CC(=O)[C@@H]1C[C@H]2CN1c1nc(nc3c1oc1ccccc13)CCOCCCC(=O)N1CC[C@@H]([C@@H](C)C1)n1c(nc3cc(Cl)ccc31)O2`: the IC50 was found to be 2.8 nM.

On to `C[C@H]1CN2CC[C@H]1n1c(nc3ccccc31)O[C@H]1C[C@@H](C(=O)O)N(C1)c1nc(nc3c1oc1ccccc13)C(F)(F)COCCCCC2=O`, for which the concentration for half-maximal inhibition (IC50) worked out at 2.1 nM.

The next test addresses T1, Cyclic GMP-AMP synthase. Briefly: Inhibition of cGAS in human THP-1 cells expressed in baculovirus infected insect cells incubated for 18 hrs by Lucia luciferase reporter assay. (In general: Reporter assays use an easily measured gene product as a stand-in for the process of interest.)
For the compound `CC(=O)[C@@H]1C[C@H]2CN1c1nc(nc3c1oc1ccccc13)CCOCCCC(=O)N1CC[C@@H]([C@@H](C)C1)n1c(nc3cc(Cl)ccc31)O2`, 2.8 nM corresponded to half-maximal inhibition (IC50).

For `C[C@H]1CN2CC[C@@H]1n1c(nc3ccccc31)O[C@H]1C[C@@H](C(=O)O)N(C1)c1nc(nc3c1oc1cc(Cl)ccc13)C(F)(F)CCCOCC2=O`, 1.5 nM corresponded to half-maximal inhibition (IC50).

The compound `Cc1cccc2c1nc1n2[C@@H]2CCN(C[C@H]2C)C(=O)CCCCCC(F)(F)c2nc(c3oc4ccccc4c3n2)N2C[C@H](C[C@H]2C(=O)O)O1` came in with an IC50 of 180 nM.

For `C[C@H]1CN2CC[C@@H]1n1c(nc3ccccc31)O[C@H]1C[C@@H](C(=O)O)N(C1)c1nc(nc3c1oc1ccccc13)CCCCCN(C)C2=O`, the IC50 worked out at 500 nM.

With `C[C@H]1CN2CC[C@@H]1n1c(nc3ccccc31)O[C@H]1C[C@@H](C(=O)O)N(C1)c1nc(nc3c1oc1ccccc13)C(F)(F)CCCCC(F)(F)C2=O`, the half-maximal inhibitory concentration (IC50) amounted to 13 nM.

Compound `C[C@H]1CN2CC[C@H]1n1c(nc3ccccc31)O[C@H]1C[C@@H](C(=O)O)N(C1)c1nc(nc3c1oc1ccccc13)C(F)(F)COCCCCC2=O` gave a 50% inhibitory concentration (IC50) of 0.44 nM.

As to `C[C@H]1CN2CC[C@@H]1n1c(nc3cc(Cl)ccc31)O[C@H]1C[C@@H](C(=O)O)N(C1)c1nc(nc3c1oc1cc(Cl)ccc13)CCOCCCC2=O`, the IC50 amounted to 2.4 nM.

Compound `C[C@@H]1CN2CC[C@H]1n1c(nc3ccccc31)O[C@H]1C[C@@H](C(=O)O)N(C1)c1nc(nc3c1oc1ccccc13)CCCCCOC2=O` came in with an IC50 of 180 nM.

Regarding `C[C@@H]1CN2CC[C@H]1n1c(nc3cc(Cl)ccc31)O[C@H]1C[C@@H](C(=O)O)N(C1)c1nc(nc3c1oc1ccccc13)CCOCCCC2=O`, the IC50 is 39 nM.

As for `C[C@H]1CN2CC[C@@H]1n1c(nc3cc(Cl)ccc31)O[C@H]1C[C@@H](C(=O)O)N(C1)c1nc(nc3c1oc1ccccc13)C(F)(F)OCCCCC2=O`, the IC50 came out at 3.1 nM.
